Where two headings read alike, the source gives them in different places.
Tests used:
[1] = test system: NCI-H3122 cells; experiment: In vivo pharmacodynamic study, subcutaneously implanted tumor NCI-H3122 (two-sided model); set-up: species or system BALB/c nude mouse
Description: (§1) Passages were treated twice a week. When the cell number reached requirement, the cells were collected, counted and inoculated.
(§2) Administration mode and frequency: oral gavage was carried out with an administration volume of 10 mL/kg, and the model group was administered with the same volume of solvent. The administration was once per day and continuously carried out for 16 days.
(§3) General conditions such as spirit, activity, food intake and the like of the mice were observed every day, and the weight was measured thrice every week; the short diameter (a) and the long diameter (b) of each mouse tumor were measured thrice a week with a vernier caliper, and the tumor volume was calculated according to the formula (a^2×b)/2. The Relative Tumor Volume (RTV) was calculated from the measured tumor volume, wherein RTV=Vt/V0, wherein V0 was the tumor volume at random grouping (i.e., d0) and Vt was the tumor volume at each measurement (i.e., dn). The relative tumor proliferation rate of the evaluation index of the anti-tumor activity was calculated according to the following formula: relative tumor proliferation rate T/C (%): […]
(§4) Note: TRTV: treatment group RTV; CRTV model control group RTV.

[2] = test system: NCI-H1975 EGFR DTC(C797S/T790M/Del19) cells; experiment: In vivo pharmacodynamic study, subcutaneously implanted tumor NCI-H1975 EGFR DTC(C797S/T790M/Del19) (two-sided model); set-up: species or system BALB/c nude mouse
Description: as §1, §2, §3, §4

[3] = test system: BaF3 EML-4-ALK-L1196M cell line; experiment: Cell anti-proliferation test 4 (CCK-8), BaF3 EML-4-ALK-L1196M; format: cell-based; details: Ba/F3 EML4-ALK-L1196M, BaF3 EML-4-ALK-L1196M cells, CCK-8, 72 hours
Description: BaF3 EML-4-ALK-L1196M cell line, brand: KYinno, article number: KC-0102
Cell Counting Kit-8 (CCK-8), brand: Targetmol, article number: C0005
10 μL of the compound diluted in gradient was added to the cell plate to give final concentrations of the compounds as 500, 166.67, 55.56, 18.52, 6.17, 2.06, 0.69, 0.23 and 0.08 nM. • d.

[4] = Single administration toxicity test, orally intragastric administration to SD rats; format: in vivo; details: for Mortality Female: 5 female rats; for Mortality Female / Mortality Male / Mortality/total number of animals: day 15; for Mortality Male: 5 male rats
Description: 8-week-old SD rats, 10 per group, male and female half, were purchased from Beijing SiPeiFu. The rats were tested after 3 days of acclimatization in this laboratory. The oral administration was performed by intragastric administration with an administration volume of 10 mL/kg. The rats were fasted and not forbidden to drink water for 17 hours before administration. The rats in the control group were given an equal volume of solvent via oral gavage. The feeding was resumed about 2 hours after the end of the administration.
Observations were made twice daily after the administration. The day of first administration was defined as day 1 of the test. The test was carried out for 14 consecutive days, and ended in day 15.

[5] = biological target: EGFR-WT (Homo sapiens (Human), UniProt P00533); experiment: Enzymatic activity test (ADP-Glo) EGFR-WT; format: biochemical; details: kinase
Chain of EGFR-WT (P00533 25-1210): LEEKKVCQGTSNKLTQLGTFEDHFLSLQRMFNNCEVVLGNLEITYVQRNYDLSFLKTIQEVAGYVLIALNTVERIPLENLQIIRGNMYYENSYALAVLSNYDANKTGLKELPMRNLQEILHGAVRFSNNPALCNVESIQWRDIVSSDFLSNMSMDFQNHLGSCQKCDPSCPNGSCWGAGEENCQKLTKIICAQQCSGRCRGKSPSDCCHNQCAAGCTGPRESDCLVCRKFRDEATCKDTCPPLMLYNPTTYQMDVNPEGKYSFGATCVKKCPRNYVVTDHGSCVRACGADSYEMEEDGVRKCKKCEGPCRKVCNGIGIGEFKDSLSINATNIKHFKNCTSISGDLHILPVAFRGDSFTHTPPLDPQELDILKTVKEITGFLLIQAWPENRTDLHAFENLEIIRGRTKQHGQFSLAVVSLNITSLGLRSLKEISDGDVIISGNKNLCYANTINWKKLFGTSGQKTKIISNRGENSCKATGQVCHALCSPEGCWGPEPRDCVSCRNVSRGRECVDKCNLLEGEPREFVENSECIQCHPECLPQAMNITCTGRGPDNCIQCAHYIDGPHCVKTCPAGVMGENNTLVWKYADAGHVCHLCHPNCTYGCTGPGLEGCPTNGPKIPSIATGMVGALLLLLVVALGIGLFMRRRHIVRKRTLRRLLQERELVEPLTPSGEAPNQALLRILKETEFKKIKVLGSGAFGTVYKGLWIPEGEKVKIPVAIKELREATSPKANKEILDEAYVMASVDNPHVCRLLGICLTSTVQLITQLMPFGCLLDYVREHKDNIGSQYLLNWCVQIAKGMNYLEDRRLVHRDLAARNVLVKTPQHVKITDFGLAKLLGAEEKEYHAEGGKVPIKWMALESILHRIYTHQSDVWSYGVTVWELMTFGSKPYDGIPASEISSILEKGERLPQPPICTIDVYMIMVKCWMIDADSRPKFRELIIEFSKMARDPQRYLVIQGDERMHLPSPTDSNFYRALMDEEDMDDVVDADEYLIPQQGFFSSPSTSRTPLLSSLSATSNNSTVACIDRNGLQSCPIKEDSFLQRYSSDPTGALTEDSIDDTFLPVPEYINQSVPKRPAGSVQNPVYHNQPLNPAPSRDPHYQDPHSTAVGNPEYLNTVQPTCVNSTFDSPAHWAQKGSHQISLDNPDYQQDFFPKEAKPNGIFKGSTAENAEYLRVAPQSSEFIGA
Description: • 1. […] Test information:
To assess the effect of compounds on the activity of wild-type and mutant EGFR kinases, kinase activity was tested by measuring ATP consumption in an enzymatic reaction using an ADP-Glo (Promega Corporation) kit. Samples to be tested were dissolved in DMSO and diluted in a gradient. In a microplate, an EGFR kinase, a reaction buffer (containing Tris-HCl with a pH of 7.5, MgCl2, DTT and BSA), a kinase substrate Poly(Glu4, Tyr1) and a sample (a total volume of 20 μL per well) were added per well, while a blank control (no enzyme and sample) and a negative control (no sample) were set up; incubated for 15 minutes at 23° C.; added with 5 μL of ATP, and reacted at 23° C. for 60 minutes; added with ADP-Glo Reagent, and continuously reacted for 40 minutes at room temperature to inactivate the redundant ATP; then, added with a Kinase Detection Reagent, and reacted at room temperature for 30 minutes, then the chemiluminescence intensity L of each well was measured. […] IC50 values were calculated according to the above calculation using 4Parameter Logistic Model in XLfit software. • 3.

[6] = 20 mg/kg oral gavage once per day
[7] = 40 mg/kg oral gavage once per day

**Q.** What does the source list for `COc1cc(N2CCC(N3CCN(C)CC3)CC2)c(C)cc1Nc1ncc(Br)c(Nc2ccc(C)cc2P(C)(C)=O)n1` [Compound 2]?
**A.** NCI-H3122 Tumor volume Day 0 [1, 6]: 116 mm^3; NCI-H3122 T/C Day 2 [1, 6]: 81.79%; NCI-H3122 Tumor volume Day 2 [1, 6]: 115 mm^3; NCI-H3122 T/C Day 4 [1, 6]: 49.46%; NCI-H3122 Tumor volume Day 4 [1, 6]: 92 mm^3; NCI-H3122 T/C Day 6 [1, 6]: 34.18%; NCI-H3122 Tumor volume Day 6 [1, 6]: 84 mm^3; NCI-H3122 T/C Day 9 [1, 6]: 19.71%; NCI-H3122 Tumor volume Day 9 [1, 6]: 74 mm^3; NCI-H3122 T/C Day 11 [1, 6]: 13.58%; NCI-H3122 Tumor volume Day 11 [1, 6]: 63 mm^3; NCI-H3122 T/C Day 13 [1, 6]: 10.25%; NCI-H3122 Tumor volume Day 13 [1, 6]: 58 mm^3; NCI-H3122 T/C Day 16 [1, 6]: 8.16%; NCI-H3122 Tumor volume Day 16 [1, 6]: 61 mm^3; NCI-H3122 Tumor volume Day 0 [1, 7]: 116 mm^3; NCI-H3122 T/C Day 2 [1, 7]: 72.16%; NCI-H3122 Tumor volume Day 2 [1, 7]: 101 mm^3; NCI-H3122 T/C Day 4 [1, 7]: 29.76%; NCI-H3122 Tumor volume Day 4 [1, 7]: 54 mm^3; NCI-H3122 T/C Day 6 [1, 7]: 19.38%; NCI-H3122 Tumor volume Day 6 [1, 7]: 47 mm^3; NCI-H3122 T/C Day 9 [1, 7]: 8.54%; NCI-H3122 Tumor volume Day 9 [1, 7]: 33 mm^3; NCI-H3122 T/C Day 11 [1, 7]: 7.2%; NCI-H3122 Tumor volume Day 11 [1, 7]: 34 mm^3; NCI-H3122 T/C Day 13 [1, 7]: 5.28%; NCI-H3122 Tumor volume Day 13 [1, 7]: 32 mm^3; NCI-H3122 T/C Day 16 [1, 7]: 3.6%; NCI-H3122 Tumor volume Day 16 [1, 7]: 28 mm^3; NCI-H1975 EGFR DTC(C797S/T790M/Del19) Tumor volume Day 0 [2, 6]: 110 mm^3; NCI-H1975 EGFR DTC(C797S/T790M/Del19) T/C Day 2 [2, 6]: 75.84%; NCI-H1975 EGFR DTC(C797S/T790M/Del19) Tumor volume Day 2 [2, 6]: 147 mm^3; NCI-H1975 EGFR DTC(C797S/T790M/Del19) T/C Day 4 [2, 6]: 66.68%; NCI-H1975 EGFR DTC(C797S/T790M/Del19) Tumor volume Day 4 [2, 6]: 235 mm^3; NCI-H1975 EGFR DTC(C797S/T790M/Del19) T/C Day 6 [2, 6]: 56.63%; NCI-H1975 EGFR DTC(C797S/T790M/Del19) Tumor volume Day 6 [2, 6]: 321 mm^3; NCI-H1975 EGFR DTC(C797S/T790M/Del19) T/C Day 9 [2, 6]: 43.36%; NCI-H1975 EGFR DTC(C797S/T790M/Del19) Tumor volume Day 9 [2, 6]: 480 mm^3; NCI-H1975 EGFR DTC(C797S/T790M/Del19) T/C Day 11 [2, 6]: 40.68%; NCI-H1975 EGFR DTC(C797S/T790M/Del19) Tumor volume Day 11 [2, 6]: 583 mm^3; NCI-H1975 EGFR DTC(C797S/T790M/Del19) T/C Day 13 [2, 6]: 40.09%; NCI-H1975 EGFR DTC(C797S/T790M/Del19) Tumor volume Day 13 [2, 6]: 720 mm^3; NCI-H1975 EGFR DTC(C797S/T790M/Del19) T/C Day 16 [2, 6]: 37.95%; NCI-H1975 EGFR DTC(C797S/T790M/Del19) Tumor volume Day 16 [2, 6]: 1065 mm^3; NCI-H1975 EGFR DTC(C797S/T790M/Del19) Tumor volume Day 0 [2, 7]: 113 mm^3; NCI-H1975 EGFR DTC(C797S/T790M/Del19) T/C Day 2 [2, 7]: 67.13%; NCI-H1975 EGFR DTC(C797S/T790M/Del19) Tumor volume Day 2 [2, 7]: 133 mm^3; NCI-H1975 EGFR DTC(C797S/T790M/Del19) T/C Day 4 [2, 7]: 50.41%; NCI-H1975 EGFR DTC(C797S/T790M/Del19) Tumor volume Day 4 [2, 7]: 177 mm^3; NCI-H1975 EGFR DTC(C797S/T790M/Del19) T/C Day 6 [2, 7]: 39.48%; NCI-H1975 EGFR DTC(C797S/T790M/Del19) Tumor volume Day 6 [2, 7]: 217 mm^3; NCI-H1975 EGFR DTC(C797S/T790M/Del19) T/C Day 9 [2, 7]: 24.87%; NCI-H1975 EGFR DTC(C797S/T790M/Del19) Tumor volume Day 9 [2, 7]: 269 mm^3; NCI-H1975 EGFR DTC(C797S/T790M/Del19) T/C Day 11 [2, 7]: 22.07%; NCI-H1975 EGFR DTC(C797S/T790M/Del19) Tumor volume Day 11 [2, 7]: 308 mm^3; NCI-H1975 EGFR DTC(C797S/T790M/Del19) T/C Day 13 [2, 7]: 18.98%; NCI-H1975 EGFR DTC(C797S/T790M/Del19) Tumor volume Day 13 [2, 7]: 327 mm^3; NCI-H1975 EGFR DTC(C797S/T790M/Del19) T/C Day 16 [2, 7]: 14.36%; NCI-H1975 EGFR DTC(C797S/T790M/Del19) Tumor volume Day 16 [2, 7]: 385 mm^3; IC50 ([3]; first test, read-out: First test IC50): 15.1 nM; IC50 ([3]; second test, read-out: Second test IC50): 10.4 nM; Mortality Female ([4]; 25 mg/kg single dose): 0; Mortality Male ([4]; 25 mg/kg single dose): 0; Mortality/total number of animals ([4]; 25 mg/kg single dose): 0/10; Mortality Female ([4]; 75 mg/kg single dose): 0; Mortality Male ([4]; 75 mg/kg single dose): 0; Mortality/total number of animals ([4]; 75 mg/kg single dose): 0/10; Mortality Female ([4]; 100 mg/kg single dose): 0; Mortality Male ([4]; 100 mg/kg single dose): 0; Mortality/total number of animals ([4]; 100 mg/kg single dose): 0/10; Mortality Female ([4]; 125 mg/kg single dose): 0; Mortality Male ([4]; 125 mg/kg single dose): 0; Mortality/total number of animals ([4]; 125 mg/kg single dose): 0/10; Mortality Female ([4]; 150 mg/kg single dose): 0; Mortality Male ([4]; 150 mg/kg single dose): 1; Mortality/total number of animals ([4]; 150 mg/kg single dose): 1/10; Mortality Female ([4]; 200 mg/kg single dose): 0; Mortality Male ([4]; 200 mg/kg single dose): 0; Mortality/total number of animals ([4]; 200 mg/kg single dose): 0/10; MTD at 14 days ([4]; both sexes, rat, in vivo, po, SD rats, single orally intragastric administration, read-out: Maximum Tolerated Dose (MTD)): 125 mg/kg

**Q.** For `COc1cc(N2CCC(N3CCN(C)CC3)CC2)c(Cl)cc1Nc1ncc(Br)c(Nc2ccc(C)cc2P(C)(C)=O)n1` [Compound 14], which IC50 [5] is on record?
**A.** 65.9 nM

Source: patent US20230322822A1, “ARYL PHOSPHOROUS OXIDE COMPOUNDS AND USE THEREOF” (Chengdu Di'ao Jiuhong Pharmaceutical Factory, priority 2020, published 2023)
